Assay results from US12071469B2, “Peptide compounds for suppressing inflammation” (Duke University, priority 2011, dated 2024).
“Also recorded” adds a separate entry of the source.

Experiments:
[1] = test system: primary rat neuronal cortical culture exposed to NMDA; assay: Neuroprotection from NMDA mediated cell death in primary neuronal culture (LDH release); assay type: cell-based; conditions: for reduced LDH release: concentration not given
Procedure: Peptides of 5 amino acids in length were applied to one or more samples of cells in parallel at concentrations ranging from about 0 to about 50 μM, such as 0.3, 3, and 30 μM. The peptides AL-10-1 (SEQ ID NO:18) and VL-17-9 (SEQ ID NO:19), which are longer peptides (12 amino acids each) were used as negative and positive controls, respectively. A series of peptides were screened in primary rat neuronal cortical culture exposed to NMDA using the method described in Aono et al., Neuroscience (2003) 116:437 and Aono et al., Neurobiology of Disease (2002) 11:214, both of which are incorporated by reference in their entirety (see Table 2). Neuroprotection from NMDA mediated cell death in primary neuronal culture was expressed as percentage decrease in LDH, 24 hours after exposure to NMDA compared to vehicle treated cultures (Table 2). LDH release is indicative of neuronal death after NMDA exposure. The peptide VR-55 (SEQ ID NO:4) reduced NMDA mediated excitotoxic cell death by approximately 19% at a concentration of 1 μM. […] The positive control peptide VL-17-9 reduced LDH release by 31%.
Dose response of the neuroprotection from NMDA excitotoxicity in primary neuronal culture was determined for ApoE mimetic peptide VR-55 (SEQ ID NO: 4). […] “0” indicates less than 5% suppression; “+” indicates 5-10% suppression; “++” indicates 11-20% suppression; and “+++” indicates greater than 20% suppression. In addition to VL-17-9, several other candidates had greater than 20% suppression, including VR-55, VL-5-1, VL-5-2 and VR-52.

[2] = test system: mixed glial primary culture; assay: Suppression of TNF-α release in mixed glial primary culture after exposure to LPS; assay type: cell-based, murine; conditions: FIGS. 11A and 11B
Procedure: (§1) In vitro methods have been developed using cultured cells for evaluating the ability of a compound, such as a peptide, to suppress glial activation. Laskowitz et al., (2001) Exp. Neurol., 167:74-85. Glial cell cultures were grown and maintained under standard conditions. Cultured glial cells may include primary murine mixed glial cell cultures, murine BV-2 microglial cells, and human C3 microglial cells. Adherent glial cells were washed with OptiMEM® medium (available from Invitrogen Corp.) to remove serum and covered with fresh OptiMEM® medium containing peptide.
Larger peptides or proteins may need to be tested at higher concentrations to observe measurable suppression of glial activation. If using primary murine cells and BV-2 cells, cells are stimulated with 100 ng/ml E. coli LPS (available from Sigma-Aldrich Co.), and supernatant is collected six hours after LPS stimulation and assayed for nitrite (using a colorimetric Griess reagent system, available from Promega Corp.) and/or TNF-α (using a solid-phase ELISA kit, available from Invitrogen Corp.). If using human C3 cells, cells are stimulated with 200 μg/ml polyinosinic acid 5′ (available from Sigma-Aldrich Co.), and supernatant is collected 5 days after stimulation and assayed for TNF-α using a solid-phase ELISA kit (available from Invitrogen Corp.).
The protective activity against brain injury-downregulating CNS inflammatory response was determined for ApoE mimetic peptides, VR-55 (SEQ ID NO: 4), VL-5-1 (SEQ ID NO: 5) and VL-5-3 (SEQ ID NO: 10).

[3] = test system: BV-2 murine microglial cells; assay: Suppression of LPS-stimulated TNF-α production in BV-2 microglial cells (ELISA); assay type: cell-based; conditions: peptide 0.3, 3 or 30 μM; LPS 100 ng/mL, six hours; FIG. 1; listed as SEQ ID NO:3
Procedure: Cultured BV-2 murine microglial cells were incubated with either the indicated concentrations of peptide (SEQ ID NO:3) or a negative control peptide (SEQ ID NO:13) and stimulated with lipopolysaccharide (LPS) (100 ng/mL) for six hours. After six hours, supernatants were harvested and the concentration of secreted TNF-α was measured by ELISA (**p<0.01; ANOVA).
as §1
Larger peptides or proteins may need to be tested at higher concentrations to observe measurable suppression of glial activation. […]
Murine BV-2 cultures were prepared and used to evaluate suppression of microglial activation as described in Example 1. […] Each sample was stimulated with LPS and assessed for TNF-α production as described in Example 1.

[4] = test system: mice with traumatic brain injury; assay: Rotorod vestibulomotor function after traumatic brain injury; assay type: in vivo, mouse; conditions: 0.05 mg/kg or 0.2 mg/kg iv at 2 h and 6 h after traumatic brain injury
Procedure: An experimental murine model for traumatic brain injury was developed. Laskowitz, et al. (2010) J. Neurotrauma, 27:1983-95. Male mice (age 12-14 weeks) were anesthetized with 4.3% isoflurane in oxygen in an anesthesia induction box for 90 seconds. The trachea was intubated and the lungs mechanically ventilated with 1.4% isoflurane in a 50/50 mixture of oxygen and nitrogen. Body temperature was maintained at 37° C. using surface heating/cooling. The top of the skull was exposed by a midline incision to identify anatomical landmarks, and a concave 3-mm metallic disc was secured to the skull surface with an adhesive, directly midline and just caudal to the bregma. The disc diffused the energy of impact and reduced the incidence of depressed skull fracture to less than 10%. After general anesthesia, mice were positioned in a stereotactic device and the skull was exposed. A pneumatic impactor (diameter: 2.0 mm; available from Air-Power, Inc.) discharged at 6.8±0.2 m/s with a head displacement of 3 mm was used to deliver a single midline impact to the disc surface.
An experimental procedure for measuring neurological deficits was developed. An automated rotorod (available from Ugo Basile North America, Inc.) was used to assess vestibulomotor function. On the day before experimental induction of a neurological condition or injury (such as, for example, traumatic brain injury or intracerebral hemorrhage as described above), mice under went two consecutive conditioning trials at a set rotational speed (16 revolutions per minute) for 60 seconds followed by three additional trials with an accelerating rotational speed. The average time to fall from the rotating cylinder in the latter three trials was recorded as baseline latency. After injury, mice under went consecutive daily testing with three trials of accelerating rotational speed (intertribal interval of 15 minutes). Average latency to fall from the rod was recorded, and mice unable to grip the rod were scored with a latency of 0 seconds.
Groups of mice received either an ApoE mimetic peptide (SEQ ID NO:3; 0.05 mg/kg or 0.2 mg/kg) or carrier (saline) by intravenous tail vein injection at 2 hours and again at 6 hours after traumatic brain injury induced as described in Example 3. Each mouse was tested for vestibulomotor function by rotorod latency measured before and after injury, as described in Example 3.
Groups of mice received either an ApoE mimetic peptide (SEQ ID NO:4; 0.05 mg/kg) or carrier (saline) by intravenous tail vein injection at 2 hours and again at 6 hours after traumatic brain injury induced as described in Example 3. Each mouse was tested for vestibulomotor function by rotorod latency measured before and after injury, as described in Example 3. […]

Substance | percentage decrease in LDH, 24 hours after exposure to NMDA compared to vehicle treated cultures ([1]; peptide 1 μM) | suppression of LDH release, cumulative data (class) ([1]; peptide 1 μM) | also measured
Ac-VARKL-NH2 [VL-5-1] | 24.48% | +++ (greater than 20% suppression) | percentage decrease in LDH, 24 hours after exposure to NMDA compared to vehicle treated cultures ([1]; peptide 0.1 μM): 18.57%; percentage decrease in LDH, 24 hours after exposure to NMDA compared to vehicle treated cultures ([1]; peptide 0.3 μM): 0.29%; release of inflammatory cytokine TNF-α [2]: inhibition of microglial TNF-α secretion; also recorded: suppress the release of inflammatory cytokine TNF-α
Ac-VSKRR-NH2 [VR-53] | 7.03% | + (5-10% suppression) | TNF-α production relative to untreated cells or negative control peptide [3]: inhibition of microglial TNF-α secretion; also recorded: decreased TNF-α production; durability of effect on rotorod latency [4]: durable through the five-day testing period; vestibulomotor performance (rotorod latency) compared to carrier ([4]; FIG. 2, listed as SEQ ID NO:3): significantly improved vestibulomotor performance
Ac-RHKRR-NH2 [RR-5-1] | 7.50% | + (5-10% suppression) | –
Ac-RHKKL-NH2 [RL-5-1] | −2.85% | ++ (11-20% suppression) | –
Ac-VARRL-NH2 [VL-5-3] | 11.50% | ++ (11-20% suppression) | percentage decrease in LDH, 24 hours after exposure to NMDA compared to vehicle treated cultures ([1]; peptide 0.1 μM): −19.04%; percentage decrease in LDH, 24 hours after exposure to NMDA compared to vehicle treated cultures ([1]; peptide 0.3 μM): −16.70%; release of inflammatory cytokine TNF-α [2]: inhibition of microglial TNF-α secretion; also recorded: suppress the release of inflammatory cytokine TNF-α
Ac-VARKL-NH2 [VL-5-2] | 34.26% | +++ (greater than 20% suppression) | reduced LDH release [1]: 31%
Ac-VSKKR-NH2 [VR-54, negative control peptide, reference compound] | −15.91% | ++ (11-20% suppression) | –
Ac-RSKKL-NH2 [RL-5-3] | −20.80% | 0 (less than 5% suppression) | –
Ac-VSRKR-NH2 [VR-52] | 12.63% | +++ (greater than 20% suppression) | –
Ac-RSKRR-NH2 [RR-5-2] | 0.08% | 0 (less than 5% suppression) | –
Ac-ASHLRKLRKRLL-NH2 [AL-10-1, reference compound] | −6.21% | 0 (less than 5% suppression) | –
Ac-LRVRLASLLRKL-NH2 [VL-17-9, longer peptide (12 amino acids) used as positive control, reference compound] | 30.95% | +++ (greater than 20% suppression) | reduced LDH release [1]: 31%; percentage decrease in LDH, 24 hours after exposure to NMDA compared to vehicle treated cultures ([1]; peptide 0.1 μM): 16.19%
Ac-RARRL-NH2 [RL-5-2] | −5.23% | 0 (less than 5% suppression) | –
